# Source: the supplement of paper PMC10627819
# Experiments:
# Conditions in all cases: main component drawn
# S. aureus Newman [1] = assay: fitness (endpoint OD595 vs no drug) (fraction); higher = more growth
# Outline: (§1)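 Cultures at OD595 0.01 were dispensed into 384-well plates in TSB, LB Lennox or CY and incubated at 37 °C. Every 30 min for 14 h, OD595 was read and corrected by the first reading. Fitness is the optical density at entry into stationary phase relative to the robust mean of no-drug control wells, capped at 1.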
# S. aureus DSM 20231 [2] = assay: as above
# Outline: as §1
# B. subtilis 168 = assay: Bliss interaction score (quartile over a dose matrix) (fitness difference); higher = more antagonism (negative = synergy)
# Outline: (§2)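 Growth was read as OD595 when cultures entered stationary phase, and each value was divided by the plate's robust no-drug mean and capped at 1. This normalised ratio is the fitness value, and fitness for each single drug came from the combination data. The Bliss score subtracts the expected fitness, taken as the product, from the observed fitness and is given as quartiles across technical, biological and donor/recipient replicates.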
# S. pneumoniae D39V = assay: as above
# Outline: as §2
# S. aureus Newman [3] = assay: as above
# Outline: as §2
# S. aureus DSM 20231 [4] = assay: as above
# Outline: as §2
# [5] = first compound 0.078 µg/mL, partner 0.1562 µg/mL
# [6] = first compound 0.078 µg/mL, partner 0.3125 µg/mL
# [7] = first compound 0.078 µg/mL, partner 0.625 µg/mL
# [8] = first compound 0.156 µg/mL, partner 0.1562 µg/mL
# [9] = first compound 0.156 µg/mL, partner 0.3125 µg/mL
# [10] = first compound 0.156 µg/mL, partner 0.625 µg/mL
# [11] = first compound 0.312 µg/mL, partner 0.1562 µg/mL
# [12] = first compound 0.312 µg/mL, partner 0.3125 µg/mL
# [13] = first compound 0.312 µg/mL, partner 0.625 µg/mL
# 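Wherever Bliss interaction score (quartile over a dose matrix) is given: first quartile when negative (synergy) and third quartile when positive (antagonism).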
compound,measurement,setting,value
CO/N=C(\C(=O)N[C@@H]1C(=O)N2C(C(=O)O)=C(COC(C)=O)CS[C@H]12)c1csc(N)n1 [Cefotaxime] + CCCCCCCCCC(=O)N[C@@H]1[C@H]([C@@H]([C@H](O[C@H]1OC2=C3C=C4C=C2OC5=C(C=C(C=C5)[C@H]([C@H]6C(=O)N[C@@H](C7=C(C(=CC(=C7)O)OC8[C@H]([C@H]([C@@H]([C@H](O8)CO)O)O)O)C9=C(C=CC(=C9)[C@H](C(=O)N6)NC(=O)[C@@H]4NC(=O)[C@@H]1C2=CC(=CC(=C2)OC2=C(C=CC(=C2)[C@H](C(=O)N[C@H](CC2=CC(=C(O3)C=C2)Cl)C(=O)N1)N)O)O)O)C(=O)O)O[C@H]1[C@@H]([C@H]([C@@H]([C@H](O1)CO)O)O)NC(=O)C)Cl)CO)O)O [Teicoplanin],fitness,"S. aureus Newman [1]; first compound 0.039 µg/mL, partner 0.62 µg/mL, one replicate",0.563
same,fitness,"S. aureus Newman [1]; first compound 0.039 µg/mL, partner 1.24 µg/mL, one replicate",0.614
same,fitness,"S. aureus Newman [1]; first compound 0.039 µg/mL, partner 2.48 µg/mL, one replicate",0.405
same,fitness,S. aureus Newman [1]; [5],0.684
same,fitness,S. aureus Newman [1]; [6],0.672
same,fitness,"S. aureus Newman [1]; first compound 0.078 µg/mL, partner 0.62 µg/mL, one replicate",0.592
same,fitness,S. aureus Newman [1]; [7],0.574
same,fitness,"S. aureus Newman [1]; first compound 0.078 µg/mL, partner 1.24 µg/mL, one replicate",0.531
same,fitness,"S. aureus Newman [1]; first compound 0.078 µg/mL, partner 2.48 µg/mL, one replicate",0.203
same,fitness,S. aureus Newman [1]; [8],0.52
same,fitness,S. aureus Newman [1]; [9],0.498
same,fitness,"S. aureus Newman [1]; first compound 0.156 µg/mL, partner 0.62 µg/mL, one replicate",0.459
same,fitness,S. aureus Newman [1]; [10],0.46
same,fitness,"S. aureus Newman [1]; first compound 0.156 µg/mL, partner 1.24 µg/mL, one replicate",0.487
same,fitness,"S. aureus Newman [1]; first compound 0.156 µg/mL, partner 2.48 µg/mL, one replicate",0.094
same,fitness,S. aureus Newman [1]; [11],0.343
same,fitness,S. aureus Newman [1]; [12],0.356
same,fitness,"S. aureus Newman [1]; first compound 0.312 µg/mL, partner 0.62 µg/mL, one replicate",0.453
same,fitness,S. aureus Newman [1]; [13],0.315
same,fitness,"S. aureus Newman [1]; first compound 0.312 µg/mL, partner 1.24 µg/mL, one replicate",0.436
same,fitness,"S. aureus Newman [1]; first compound 0.312 µg/mL, partner 2.48 µg/mL, one replicate",0.0757
same,fitness,"S. aureus Newman [1]; first compound 0.625 µg/mL, partner 0.1562 µg/mL, one replicate",0.0055
same,fitness,"S. aureus Newman [1]; first compound 0.625 µg/mL, partner 0.3125 µg/mL, one replicate",0.0074
same,fitness,"S. aureus Newman [1]; first compound 0.625 µg/mL, partner 0.625 µg/mL, one replicate",0.152
same,fitness,"S. aureus Newman [1]; first compound 1.25 µg/mL, partner 0.1562 µg/mL, one replicate",0.0152
same,fitness,"S. aureus Newman [1]; first compound 1.25 µg/mL, partner 0.3125 µg/mL, one replicate",0.0026
same,fitness,"S. aureus Newman [1]; first compound 1.25 µg/mL, partner 0.625 µg/mL, one replicate",0.0074
same,fitness,"S. aureus Newman [1]; first compound 2.5 µg/mL, partner 0.1562 µg/mL, one replicate",0.0359
same,fitness,"S. aureus Newman [1]; first compound 2.5 µg/mL, partner 0.3125 µg/mL, one replicate",0.0126
same,fitness,"S. aureus Newman [1]; first compound 2.5 µg/mL, partner 0.625 µg/mL, one replicate",0.0149
same,fitness,"S. aureus DSM 20231 [2]; first compound 0.039 µg/mL, partner 0.1562 µg/mL, one replicate",0.672
same,fitness,"S. aureus DSM 20231 [2]; first compound 0.039 µg/mL, partner 0.3125 µg/mL, one replicate",0.754
same,fitness,"S. aureus DSM 20231 [2]; first compound 0.039 µg/mL, partner 0.625 µg/mL, one replicate",0.786
same,fitness,S. aureus DSM 20231 [2]; [5],0.791
same,fitness,S. aureus DSM 20231 [2]; [6],0.828
same,fitness,S. aureus DSM 20231 [2]; [7],0.826
same,fitness,S. aureus DSM 20231 [2]; [8],0.705
same,fitness,S. aureus DSM 20231 [2]; [9],0.775
same,fitness,S. aureus DSM 20231 [2]; [10],0.716
same,fitness,S. aureus DSM 20231 [2]; [11],0.667
same,fitness,S. aureus DSM 20231 [2]; [12],0.665
same,fitness,S. aureus DSM 20231 [2]; [13],0.663
same,Bliss interaction score,B. subtilis 168,-0.0867
same,Bliss interaction score,S. pneumoniae D39V,-0.0543
same,Bliss interaction score,S. aureus Newman [3],-0.0611
same,Bliss interaction score,S. aureus DSM 20231 [4],-0.0684
